According to patent US12410166B2, “Sulfonylamidine substituted compounds and their use as beta-lactamase inhibitors” (NINGXIA ACADEMY OF AGRICULTURE AND FORESTRY SCIENCES, priority 2021, dated 2025):
Counter-ions that a name gives are not always drawn. Like-named read-outs stand apart in the source and are kept apart here.

Tests used:
Assay in all cases: MIC by broth microdilution (antibacterial and synergistic activity)
Assay type in all cases: cell-based
[1] = test system: E. cloacae 700323 (strain 6, AmpC); conditions: Enterobacter cloacae, read-out: Antibacterial activity, MIC, inhibitor Alone
Protocol: (§1) Compounds of the present invention alone, avibactam (AVI) alone, relebactam (REL) alone, meropenem (MER) alone, imipenem (IMI) alone, and as a combination of compounds of the present invention, or avibactam or relebactam with test antibiotic (meropenem or imipenem) was tested for antimicrobial activity by determining minimum inhibitory concentration (MIC, mg/L) using the broth microdilution method according to the guidelines of the Clinical Laboratories and Standards Institute (“Methods for Dilution Antimicrobial Susceptibility Tests for Bacterial that Grow Aerobically”, Approved standard, 7th ed., Clinical and Laboratories Standards Institute (CLSI) Document M7-A8, Wayne, Pa., USA, 2009). Meropenem or imipenem as a test antibiotic compound was dissolved in DMSO, and then diluted in microbial growth medium (Mueller-Hinton Broth II, cation adjusted) resulting in a final concentration range of 0.031-64 mg/L in serial two-fold dilution. In all cases the final DMSO concentration was less than 0.5%. Bacteria were added to 96-well microtitre plates containing the serial two-fold dilutions of the compounds; the final cell density was approximately 5×10^5 colony forming units/mL (CFU/mL). Plates were incubated at 37° C. for 18-24 hours and read visually. The MIC, i.e. the lowest concentration of the test compound that inhibited visible growth of the bacteria, was recorded. The same assay conditions were used when the compounds of present invention alone, avibactam or relebactam alone (as a control), and as a combination of the present invention each compound, or avibactam or relebactam with test meropenem or imipenem antibiotic compound was tested for minimum inhibitory concentration (MIC, mg/L). While test meropenem or imipenem was serially diluted as described above, a constant concentration of avibactam, or relebactam or the present invention each compound of 4 mg/L was used.
(§2) Bacterial strains that were used to evaluate the antimicrobial activity using the MIC determination included but were not limited to E. coli clinical isolate (strain 1, TEM-1), E. coli 8739 (strain 2, CTX-M15), K. pneumoniae clinical isolate (strain 3, SHV-1), K. pneumoniae 700603 (strain 4, KPC-3, TEM-1), E. cloacae clinical isolate (strain 5, P99), E. cloacae 700323 (strain 6, AmpC), A. baumannii clinical isolate (strain 7, OXA-23, OXA-40), A. baumannii 19606 (strain 8, OXA-24), P. aeruginosa clinical isolate (strain 9, KPC-2), P. aeruginosa 9027 (strain 10, AmpC).

[2] = test system: E. coli 8739 (strain 2, CTX-M15); conditions: Escherichia coli, read-out: Antibacterial activity, MIC, inhibitor Alone
Protocol: as §1, §2

[3] = test system: P. aeruginosa clinical isolate (strain 9, KPC-2); conditions: Pseudomonas aeruginosa, read-out: Antibacterial activity, MIC, inhibitor Alone
Protocol: as §1, §2

[4] = test system: E. coli clinical isolate (strain 1, TEM-1); conditions: Escherichia coli, read-out: Antibacterial activity, MIC, inhibitor Alone
Protocol: as §1, §2

[5] = test system: P. aeruginosa 9027 (strain 10, AmpC); conditions: Pseudomonas aeruginosa, read-out: Antibacterial activity, MIC, inhibitor Alone
Protocol: as §1, §2

[6] = test system: K. pneumoniae clinical isolate (strain 3, SHV-1); conditions: Klebsiella pneumoniae, read-out: Antibacterial activity, MIC, inhibitor Alone
Protocol: as §1, §2

[7] = test system: E. cloacae clinical isolate (strain 5, P99); conditions: Enterobacter cloacae, read-out: Antibacterial activity, MIC, inhibitor Alone
Protocol: as §1, §2

[8] = test system: A. baumannii 19606 (strain 8, OXA-24); conditions: Acinetobacter baumannii, read-out: Antibacterial activity, MIC, inhibitor Alone
Protocol: as §1, §2

[9] = test system: A. baumannii clinical isolate (strain 7, OXA-23, OXA-40); conditions: Acinetobacter baumannii, read-out: Antibacterial activity, MIC, inhibitor Alone
Protocol: as §1, §2

[10] = test system: K. pneumoniae 700603 (strain 4, KPC-3, TEM-1); conditions: Klebsiella pneumoniae, read-out: Antibacterial activity, MIC, inhibitor Alone
Protocol: as §1, §2

[11] = strain 6 (AmpC), compound alone, no antibiotic
[12] = strain 9 (KPC-2), compound alone, no antibiotic
[13] = strain 1 (TEM-1), compound alone, no antibiotic
[14] = strain 10 (AmpC), compound alone, no antibiotic
[15] = strain 3 (SHV-1), compound alone, no antibiotic
[16] = strain 5 (P99), compound alone, no antibiotic
[17] = strain 7 (OXA-23/40), compound alone, no antibiotic
[18] = strain 4 (KPC-3, TEM-1), compound alone, no antibiotic

Measured: MIC

COC(=O)CCS(=O)(=O)NC(=N)[C@@H]1CC[C@@H]2CN1C(=O)N2OS(=O)(=O)[O-].[Na+] [Ex. 4, Sodium (2S,5R)-2-(N-((3-methoxy-3-oxopropyl)sulfonyl)carbamimidoyl)-7-oxo-1,6-diazabicyclo[3.2.1]octan-6-ylsulfate]
> 64 µg/mL: [1] | [2] | [3] | [4] | [5] | [6] | [7] | [8] | [9] | [10]

N=C(NS(=O)(=O)c1cccnc1)[C@@H]1CC[C@@H]2CN1C(=O)N2OS(=O)(=O)[O-].[Na+] [Ex. 13, Sodium (2S,5R)-7-oxo-2-(N-(pyridin-3-ylsulfonyl)carbamimidoyl)-1,6-diazabicyclo[3.2.1]octan-6-yl sulfate]
> 64 µg/mL: [1]; [11] | [2] | [3]; [12] | [4]; [13] | [5]; [14] | [6]; [15] | [7]; [16] | [8] | [9]; [17] | [10]; [18]

COc1ccc(S(=O)(=O)NC(=N)[C@@H]2CC[C@@H]3CN2C(=O)N3OS(=O)(=O)O)nc1 [Ex. 22, (2S,5R)-2-(N-((5-methoxypyridin-2-yl)sulfonyl)carbamimidoyl)-7-oxo-1,6-diazabicyclo[3.2.1]octan-6-yl hydrogen sulfate]
> 64 µg/mL: [1]; [11] | [2] | [3]; [12] | [4]; [13] | [5]; [14] | [6]; [15] | [7]; [16] | [8] | [9]; [17] | [10]; [18]

CS(=O)(=O)NC(=N)[C@@H]1CC[C@@H]2CN1C(=O)N2OS(=O)(=O)[O-].[Na+] [Ex. 5, Sodium (2S,5R)-2-(N-(methylsulfonyl)carbamimidoyl)-7-oxo-1,6-diazabicyclo[3.2.1]octan-6-yl sulfate]
> 64 µg/mL: [1]; [11] | [2] | [3]; [12] | [4]; [13] | [5]; [14] | [6]; [15] | [7]; [16] | [8] | [9]; [17] | [10]; [18]

COc1ccc(S(=O)(=O)NC(=N)[C@@H]2CC[C@@H]3CN2C(=O)N3OS(=O)(=O)O)cn1 [Ex. 21, (2S,5R)-2-(N-((6-methoxypyridin-3-yl)sulfonyl)carbamimidoyl)-7-oxo-1,6-diazabicyclo[3.2.1]octan-6-yl hydrogen sulfate]
> 64 µg/mL: [1]; [11] | [2] | [3]; [12] | [4]; [13] | [5]; [14] | [6]; [15] | [7]; [16] | [8] | [9]; [17] | [10]; [18]

N=C(NS(=O)(=O)N1CCC1)[C@@H]1CC[C@@H]2CN1C(=O)N2OS(=O)(=O)O [Ex. 15, (2S,5R)-2-(N-(azetidin-1-ylsulfonyl)carbamimidoyl)-7-oxo-1,6-diazabicyclo[3.2.1]octan-6-yl hydrogen sulfate]
> 64 µg/mL: [1] | [2] | [3] | [4] | [5] | [6] | [7] | [8] | [9] | [10]

CNS(=O)(=O)NC(=N)[C@@H]1CC[C@@H]2CN1C(=O)N2OS(=O)(=O)O [Ex. 17, (2S,5R)-2-(N—(N-Methylsulfamoyl)carbamimidoyl)-7-oxo-1,6-diazabicyclo[3.2.1]octan-6-yl hydrogen sulfate]
> 64 µg/mL: [1] | [2] | [3] | [4] | [5] | [6] | [7] | [8] | [9] | [10]

N=C(NS(=O)(=O)c1ccc(F)cn1)[C@@H]1CC[C@@H]2CN1C(=O)N2OS(=O)(=O)O [Ex. 23, (2S,5R)-2-(N-((5-fluoropyridin-2-yl)sulfonyl)carbamimidoyl)-7-oxo-1,6-diazabicyclo[3.2.1]octan-6-yl hydrogen sulfate]
> 64 µg/mL: [1]; [11] | [2] | [3]; [12] | [4]; [13] | [5]; [14] | [6]; [15] | [7]; [16] | [8] | [9]; [17] | [10]; [18]

Cc1ccc(S(=O)(=O)NC(=N)[C@@H]2CC[C@@H]3CN2C(=O)N3OS(=O)(=O)[O-])cc1.[Na+] [Ex. 9, Sodium (2S,5R)-7-oxo-2-(N-tosylcarbamimidoyl)-1,6-diazabicyclo[3.2.1]octan-6-yl sulfate]
> 64 µg/mL: [1]; [11] | [2] | [3]; [12] | [4]; [13] | [5]; [14] | [6]; [15] | [7]; [16] | [8] | [9]; [17] | [10]; [18]

Cn1ccnc1S(=O)(=O)NC(=N)[C@@H]1CC[C@@H]2CN1C(=O)N2OS(=O)(=O)O [Ex. 19, (2S,5R)-2-(N-((1-methyl-1H-imidazol-2-yl)sulfonyl)carbamimidoyl)-7-oxo-1,6-diazabicyclo[3.2.1]octan-6-yl hydrogen sulfate]
> 64 µg/mL: [1]; [11] | [2] | [3]; [12] | [4]; [13] | [5]; [14] | [6]; [15] | [7]; [16] | [8] | [9]; [17] | [10]; [18]
